Reference: PubChem BioAssay AID1344 (Sanford-Burnham Center for Chemical Genomics, 2008)

Test system: CSM14.1 thapsigargin death, annexin V/PI flow, 24 h
Assay: rescue from thapsigargin-induced apoptotic death, late-stage follow-up, orthogonal assay for ER stress death inhibitor project, cell-based, undifferentiated CSM14.1, flow cytometry (AID 1344)
Details: at 25 µM; active compounds read high

Compound | survival
CC1(C)CC(=O)C2=C(C1)Nc1ccccc1NC2c1ccc(-c2ccccc2)cc1 (stereo unspecified) | 97%
CCCOc1ccc(C2Nc3ccccc3NC3=C2C(=O)CC(c2ccc(OC)c(OC)c2)C3)cc1 (stereo unspecified) | 92%
COc1ccc(C2CC(=O)C3=C(C2)Nc2ccccc2NC3c2cccc(Br)c2)cc1OC (stereo unspecified) | 96%
CCOc1cc(C2Nc3ccccc3NC3=C2C(=O)CC(c2ccc(OC)cc2)C3)cc(Cl)c1O (stereo unspecified) | 93%
COc1ccc(C2CC(=O)C3=C(C2)Nc2ccccc2NC3c2cc(C)ccc2C)cc1 (stereo unspecified) | 95%
COc1ccc(C2CC(=O)C3=C(C2)Nc2ccccc2NC3c2cccc(C(F)(F)F)c2)cc1OC (stereo unspecified) | 95%
COc1ccc(C2CC(=O)C3=C(C2)Nc2ccccc2NC3c2cccc(Oc3ccccc3)c2)cc1OC (stereo unspecified) | 95%
COc1ccc(C2CC(=O)C3=C(C2)Nc2ccccc2NC3c2ccccc2C(F)(F)F)cc1OC (stereo unspecified) | 96%
O=C1CC(c2ccccc2)CC2=C1C(c1c(F)cccc1Cl)Nc1ccccc1N2 (stereo unspecified) | 96%
CSc1ccc(C2Nc3ccccc3NC3=C2C(=O)CC(c2ccccc2)C3)cc1 (stereo unspecified) | 96%
CCOc1cccc(C2Nc3ccccc3NC3=C2C(=O)CC(c2ccc(OC)cc2)C3)c1 (stereo unspecified) | 90%
